# Source: PubChem BioAssay AID1963872 (Molecular Pharmacology Branch, DTP, NCI, 2024)
# Test system: KRAS patient-derived spheroids with HUVEC/MSC, viability
# Assay: Anticancer human tumor 519858-162-T-J1-PDC patient-derived colon adenocarcinoma cell line growth inhibition [KRAS2]
# Conditions: for IC50: curve of first compound; for viability, T/C: stronger effect = lower value
# From the text: Multicellular complex tumor spheroid response to RAS pathway inhibitors in combination with a targeted agents in patient-derived cell lines with oncogenic KRAS variants from multiple cancer types
# A high-throughput screen of multi-cell type tumor spheroids was designed to identify active combinations of targeted small molecules and KRAS pathway inhibitors. Complex spheroids include a stromal component modeled by human endothelial cells (HUVEC) and fibroblasts modeled by human mesenchymal stem cells (MSCs). The concentration ranges selected for each drug and investigational agent were based upon clinically achievable concentrations if the clinical Cmax of the agent was known.
# Compounds. The drugs and investigational agents: BI-3406 (NSC825286), BAY-293 (NSC824723), batoprotafib (TNO155; NSC825523), sotorasib (AMG 510; NSC818433), MRTX1257 (NSC819558), elimusertib (BAY 1895344; NSC800525), molibresib (GSK525762; NSC774829), temuterkib (LY3214996; NSC803410), venetoclax (NSC766270), alisertib (NSC759677), olaparib (NSC753686), talazoparib (NSC767125), erdafitinib (NSC781556), ipatasertib (NSC767898), cabozantinib (NSC761068), nintedanib (NSC756659), abemaciclib (NSC768073), docetaxel (NSC628503), trametinib (NSC758246), and sapanisertib (NSC764658) were obtained from the National Cancer Institute (NCI) Developmental Therapeutics Program Chemical Repository. The FDA-approved anticancer drug set is available from the Developmental Therapeutics Program. […] The stock solutions were prepared in dimethyl sulfoxide (DMSO, Sigma-Aldrich, St. Louis, MO, cat. D2650) at 800-fold the tested concentration and stored at -70 degrees C prior to their use. All drugs and investigational agents were tested over a range starting from a high concentration at or near the clinical Cmax and decreasing in half-log increments. If the clinical Cmax for an agent had not been determined, the highest concentration tested was 10 microM.
# Cell Culture. All cells were maintained in an incubator at 37 degrees C and 5% CO2 with 95% humidity. The PDC lines were cultured according to standard operating procedures established by the NCI PDMR (https://pdmr.cancer.gov/sops/default.htm). Briefly, all PDCs were thawed and cultured in Matrigel-coated flasks prepared with a working solution of 1X Ham's F-12 nutrient mix, without supplementation (Invitrogen, Waltham, MA, cat. 11765054), 100 U/mL penicillin-streptomycin (Invitrogen, cat. 15140122), and 2.5% Matrigel (Corning Inc., Corning, NY, cat. 354248) for the first three passages. All PDCs were cultured in complete DMEM/F-12 media containing advanced DMEM/F-12 (Invitrogen, cat. 12634028), 4.9% defined fetal bovine serum, heat inactivated (HyClone Laboratories Inc., Logan, UT, cat. SH30070.03HI), 389 ng/mL hydrocortisone (Sigma-Aldrich, cat. H4001), 9.7 ng/mL human EGF recombinant protein (Invitrogen, cat. PHG0313), 23.4 microg/mL adenine (Sigma-Aldrich, cat. A2786), 97.3 U/mL penicillin-streptomycin (Invitrogen, cat. 15140122), 1.9 mM L-glutamine (Invitrogen, cat. 25030081), and 9.7 microM Y-27632 dihydrochloride (Tocris Bioscience, Bristol, United Kingdom, cat. 1254). The PDCs were cultured in complete DMEM/F12 media without 9.7 microM Y-27632 dihydrochloride for at least two passages prior to the screen. The established cell line HOP-62 was cultured in RPMI 1640 medium, HEPES (Invitrogen, cat. 22400105) with 10% defined fetal bovine serum (HyClone Laboratories Inc., cat. SH30070.03) and 2 mM L-glutamine (Invitrogen, cat. 25030081). The pooled donor HUVEC were cultured in endothelial cell growth medium 2 (PromoCell, Heidelberg, Germany, cat. C-22011) and the hMSC were cultured in mesenchymal stem cell growth medium 2 (PromoCell, cat. C-28009). For all experiments, HUVEC and hMSC were used at passages </=5, while the malignant cell lines were used at passages </=15. […]
# [1] = second compound 0.1 µM, first compound 0.0316 µM
# [2] = second compound 0.1 µM, first compound 0.1 µM
# [3] = second compound 0.316 µM, first compound 0.0316 µM
# [4] = second compound 0.316 µM, first compound 0.1 µM
# [5] = second compound 1 µM, first compound 0.0316 µM
# [6] = second compound 1 µM, first compound 0.1 µM
# [7] = second compound 3.16 µM, first compound 0.0316 µM
# [8] = second compound 3.16 µM, first compound 0.1 µM
# [9] = second compound 10 µM, first compound 0.0316 µM
# [10] = second compound 10 µM, first compound 0.1 µM
# 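Note: compound exposure lasted seven days before readout.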
# 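Throughout, for viability, T/C: 100% = DMSO vehicle control viability.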
structure (smiles),measurement,setting,value
Cn1ncnc1[C@H]1c2n[nH]c(=O)c3cc(F)cc(c23)N[C@@H]1c1ccc(F)cc1 + COc1cc2nc(C)nc(NC(C)c3cc(N)cc(C(F)(F)F)c3)c2cc1OC1CCOC1,IC50,second compound 0.1 µM,> 0.1 µM
same,IC50,second compound 0.316 µM,> 0.1 µM
same,IC50,second compound 1 µM,> 0.1 µM
same,IC50,second compound 3.16 µM,> 0.1 µM
same,IC50,second compound 10 µM,> 0.1 µM
same,"viability, T/C","second compound 0.1 µM, first compound 0.000316 µM",71.8%
same,"viability, T/C","second compound 0.1 µM, first compound 0.001 µM",95.3%
same,"viability, T/C","second compound 0.1 µM, first compound 0.00316 µM",73.5%
same,"viability, T/C","second compound 0.1 µM, first compound 0.01 µM",71.8%
same,"viability, T/C",[1],76.9%
same,"viability, T/C",[2],80.1%
same,"viability, T/C","second compound 0.316 µM, first compound 0.000316 µM",68.2%
same,"viability, T/C","second compound 0.316 µM, first compound 0.001 µM",68.7%
same,"viability, T/C","second compound 0.316 µM, first compound 0.00316 µM",59.2%
same,"viability, T/C","second compound 0.316 µM, first compound 0.01 µM",74.9%
same,"viability, T/C",[3],77%
same,"viability, T/C",[4],74.5%
same,"viability, T/C","second compound 1 µM, first compound 0.000316 µM",74.7%
same,"viability, T/C","second compound 1 µM, first compound 0.001 µM",67.3%
same,"viability, T/C","second compound 1 µM, first compound 0.00316 µM",70.9%
same,"viability, T/C","second compound 1 µM, first compound 0.01 µM",97.4%
same,"viability, T/C",[5],68%
same,"viability, T/C",[6],58%
same,"viability, T/C","second compound 3.16 µM, first compound 0.000316 µM",45.8%
same,"viability, T/C","second compound 3.16 µM, first compound 0.001 µM",60.3%
same,"viability, T/C","second compound 3.16 µM, first compound 0.00316 µM",45.7%
same,"viability, T/C","second compound 3.16 µM, first compound 0.01 µM",69.8%
same,"viability, T/C",[7],47.8%
same,"viability, T/C",[8],70.6%
same,"viability, T/C","second compound 10 µM, first compound 0.000316 µM",49.7%
same,"viability, T/C","second compound 10 µM, first compound 0.001 µM",55.6%
same,"viability, T/C","second compound 10 µM, first compound 0.00316 µM",57.8%
same,"viability, T/C","second compound 10 µM, first compound 0.01 µM",50.7%
same,"viability, T/C",[9],57.8%
same,"viability, T/C",[10],48.4%
CC(C)NCC(C(=O)N1CCN(c2ncnc3c2C(C)CC3O)CC1)c1ccc(Cl)cc1 (stereo not given) + COc1cc2nc(C)nc(NC(C)c3cc(N)cc(C(F)(F)F)c3)c2cc1OC1CCOC1,IC50,second compound 0.1 µM,10 µM
same,IC50,second compound 0.316 µM,> 10 µM
same,IC50,second compound 1 µM,> 10 µM
same,IC50,second compound 3.16 µM,> 10 µM
same,IC50,second compound 10 µM,> 10 µM
same,"viability, T/C",[1],72.5%
same,"viability, T/C",[2],89.6%
same,"viability, T/C","second compound 0.1 µM, first compound 0.316 µM",86.2%
same,"viability, T/C","second compound 0.1 µM, first compound 1 µM",99.4%
same,"viability, T/C","second compound 0.1 µM, first compound 3.16 µM",41.4%
same,"viability, T/C","second compound 0.1 µM, first compound 10 µM",71%
same,"viability, T/C",[3],67.6%
same,"viability, T/C",[4],105%
same,"viability, T/C","second compound 0.316 µM, first compound 0.316 µM",89.6%
same,"viability, T/C","second compound 0.316 µM, first compound 1 µM",74.3%
same,"viability, T/C","second compound 0.316 µM, first compound 3.16 µM",65.2%
same,"viability, T/C","second compound 0.316 µM, first compound 10 µM",78.4%
same,"viability, T/C",[5],77.4%
same,"viability, T/C",[6],113%
same,"viability, T/C","second compound 1 µM, first compound 0.316 µM",78.2%
same,"viability, T/C","second compound 1 µM, first compound 1 µM",66%
same,"viability, T/C","second compound 1 µM, first compound 3.16 µM",49.4%
same,"viability, T/C","second compound 1 µM, first compound 10 µM",60.3%
same,"viability, T/C",[7],78%
same,"viability, T/C",[8],69.2%
same,"viability, T/C","second compound 3.16 µM, first compound 0.316 µM",56.6%
same,"viability, T/C","second compound 3.16 µM, first compound 1 µM",56.1%
same,"viability, T/C","second compound 3.16 µM, first compound 3.16 µM",61.5%
same,"viability, T/C","second compound 3.16 µM, first compound 10 µM",64.1%
same,"viability, T/C",[9],58.7%
same,"viability, T/C",[10],62%
same,"viability, T/C","second compound 10 µM, first compound 0.316 µM",61.2%
same,"viability, T/C","second compound 10 µM, first compound 1 µM",52.3%
same,"viability, T/C","second compound 10 µM, first compound 3.16 µM",58.8%
same,"viability, T/C","second compound 10 µM, first compound 10 µM",72%
